# From patent US20020177180A1, “pH-indicator based assay for selective enzymes” (ThermoGen, Inc., priority 1998, published 2002)
# Like-named read-outs stand apart in the source and are kept apart here.
# Columns and labels:
# [1] = cited from earlier work; for pKa: reported value
# [2] = system: ThermoGen esterases; experiment: True substrate selectivity measurements (competitive, resorufin ester), esters as substrates of the ThermoGen esterases; format: biochemical
# Protocol: Esterase solution (5 μL in 5 mM BES) was added to each well and the microplate was placed in the microplate reader, shaken for 5 s and the decrease in absorbance at 404 nm and the increase in absorbance at 574 nm were measured as often as permitted by the microplate reader, typically every 11 s. Data was collected for 20 minutes, at 25° C., in triplicate and was averaged. Activities were calculated from the equations above using the linear, initial portions of the curve.
# However, it is faster to measure selectivity of each substrate as it competes against a third substrate, which we call a reference compound. The ratio of the two competitive reactions is the true selectivity. […] Since some substrates react rapidly while others react slowly, we require both fast-reacting and slow-reacting reference compounds. In some cases we replaced resorufin acetate with the slower reacting resorufin pivaloate or resorufin isobutyrate as reference compounds.
# The true selectivity of the ThermoGen esterases toward different acyl chain length was determined using a competitive experiment. Resorufin esters were used as the competitive substrate as explained above and normalized the results to hexanoate =100, Table 7. The true selectivities were similar to the estimated selectivities.
# [3] = system: esterase E011; experiment: Initial screening of ThermoGen esterases toward esters 1-31 (pH indicator), specific activity; format: biochemical; conditions: 1 mM substrate, pH 7.2, 7 vol % acetonitrile, 25° C.
# Protocol: (§1) Initial screening measures the initial rate of hydrolysis of different esters. The rate of reaction was measured by monitoring the release of protons using a pH indicator, 4-nitrophenol. In this assay, the yellow color of the phenoxide disappears as the reaction proceeds. The amount of ester hydrolyzed can be measured quantitatively, as is known in the art.
# [4] = system: ThermoGen esterases; experiment: Initial screening (pH indicator): esters as substrates of the ThermoGen esterases, statements for the esterases as a group; format: biochemical; conditions: esters 1-31, initial screening
# Protocol: as §1
# (§2) To survey the substrate selectivity of the ThermoGen esterases, the ability of the enzymes to hydrolyze thirty-one different commercially-available esters, Scheme 1 (FIG. 9, Table 6).
# To evaluate the potential of the ThermoGen esterases for enantioselective reactions, the initial rates of hydrolysis of the esterases were measured using twenty-one pairs of enantiomers, Scheme 2, FIG. 10 and Tables 8-12. The ratio of these initial rates is an estimated enantioselectivity.
# [5] = system: esterase E016; experiment: Initial screening of ThermoGen esterases toward esters 1-31 (pH indicator), specific activity; format: biochemical; conditions: 1 mM substrate, pH 7.2, 7 vol % acetonitrile, 25° C.
# Protocol: as §1, §2
# [6] = system: esterase E006; experiment: as above; format: biochemical; conditions: 1 mM substrate, pH 7.2, 7 vol % acetonitrile, 25° C.
# Protocol: as §1, §2
# [7] = system: esterase E015; experiment: as above; format: biochemical; conditions: 1 mM substrate, pH 7.2, 7 vol % acetonitrile, 25° C.
# Protocol: as §1, §2
# [8] = system: esterase E014; experiment: as above; format: biochemical; conditions: 1 mM substrate, pH 7.2, 7 vol % acetonitrile, 25° C.
# Protocol: as §1, §2
# [9] = system: esterase E020; experiment: as above; format: biochemical; conditions: 1 mM substrate, pH 7.2, 7 vol % acetonitrile, 25° C.
# Protocol: as §1, §2
# [10] = system: esterase E012; experiment: as above; format: biochemical; conditions: 1 mM substrate, pH 7.2, 7 vol % acetonitrile, 25° C.
# Protocol: as §1, §2
# [11] = physchem
# Protocol: The large difference in the extinction coefficients of the protonated and deprotonated forms (200 vs 18,000 M^−1 cm^−1 at 404 nm) gave good sensitivity. The extinction coefficients changed slightly upon addition of cosolvent and was determined experimentally.
compound,measurement,setting,value
O=[N+]([O-])c1ccc(O)cc1 [4-nitrophenol],pKa upon addition of 10% ethanol,[1]; previously shown,7.17
same,pKa,[1],7.2
"O=S(=O)(O)CCCN1CCN(CCO)CC1 [EPPS, N-[2-hydroxylethyl]piperazine-N′-[3-propanesulfonic acid]]",pKa,[1],8.0
"O=S(=O)(O)CCN1CCOCC1 [MES, 2-[N-morpholino]ethanesulfonic acid]",pKa,[1],6.1
"C=COC(=O)c1ccccc1 [Substrate 10, vinyl benzoate]",quality as substrate in true selectivity measurements (in words),[2],poor substrates
"C=COC(=O)C(C)(C)C [Substrate 11, vinyl pivaloate]",quality as substrate in true selectivity measurements (in words),[2],poor substrates
CCOC(=O)CN.Cl [Substrate 31],"Specific activity, esterase E011",[3],0.1 mmol ester hydrolyzed/min/mg protein
same,quality as substrate of the ThermoGen esterases (in words),[4],usually poor substrates
same,"Specific activity, esterase E016",[5],13 mmol ester hydrolyzed/min/mg protein
same,"Specific activity, esterase E006",[6],<0.1 mmol ester hydrolyzed/min/mg protein
same,"Specific activity, esterase E015",[7],<0.1 mmol ester hydrolyzed/min/mg protein
same,"Specific activity, esterase E014",[8],<0.1 mmol ester hydrolyzed/min/mg protein
same,"Specific activity, esterase E020",[9],1.4 mmol ester hydrolyzed/min/mg protein
same,"Specific activity, esterase E012",[10],6.0 mmol ester hydrolyzed/min/mg protein
O=S1(=O)OC(c2ccc(O)c(Cl)c2)(c2ccc(O)c(Cl)c2)c2ccccc21 [chlorophenol red],pKa,[1],6.0
"O=c1ccc2nc3ccc(O)cc3oc-2c1 [resorufin alcohol, resorufin]",pKa,[11],8.15
Cc1cc(O)c(C(C)C)cc1C1(c2cc(C(C)C)c(O)cc2C)OS(=O)(=O)c2ccccc21 [thymol blue],pKa,[1],9.2
